Non-standard residues stand in square brackets, D forms with d. Residues, ends and D or L forms follow the SMILES beside them. ξ: configuration not given here. *: point of attachment. ξF = NC(Cc1ccccc1)C(=O)O; Boc = CC(C)(C)OC(=O)* Bounds are passed on as bounds.

In turn, `N#CCCCCCC(=NOCCNC(c1ccccc1)(c1ccccc1)c1ccccc1)c1ccc(Cl)c(Cl)c1` yielded a melting point of 131 to 132 °C.

Take `COc1ccc(S(=O)(=O)N(C)C)cc1-c1ccc(CN2CCCCC2)[nH]1`: the melting point was 78 to 79 °C.

As to `N#CC1CCn2c(cc3ccccc32)C1` (stereo unspecified), the melting point fell in the range of 116 to 118 °C.

On to `CCOc1ccccc1-c1ccc(C(N)=O)c(=O)[nH]1`, for which the melting point fell in the range of 218 to 220 °C. Turning to `CNc1nnc(-c2ccc3ncn(-c4cccc(OC(F)(F)F)c4)c3c2)o1`, the melting point lay within 226 to 227 °C.

In the case of `Cc1c(SCCCSc2nc3ccccc3[nH]2)ccnc1CSc1ccncc1`, the melting point was in the range of 128 to 129 °C. The value for `CC(=O)C(C)(C)N1COC(C)=C(c2ccccc2)C1=O` was 118 to 119 °C; that for `FC(F)(F)c1ccc2c(c1)ncn2-c1cccc(-n2ccnc2)c1` was 177 to 180 °C; that for `C=Cc1ccc(CSC2C(=O)N(c3c(Cl)cc(Cl)cc3Cl)N=C2Nc2cc(NC(C)=O)ccc2Cl)cc1` (stereo unspecified) was 240 °C.

`COc1ccc2c(c1)c(Cc1nc(-c3ccc(Br)cc3)cs1)c(C)n2Cc1ccc(Br)cc1` gave a melting point of 178 to 179 °C. The compound `CC(=O)Nc1cccc2c1CC(=O)CC2` came in with a melting point of 203 to 205 °C. The value for `COC(=O)c1ccc2ncc(C(=O)c3ccc(N4C[C@H](CNC(C)=O)OC4=O)cc3)n2c1` was 231 to 233 °C. In the case of `Cc1cc(C)cc(NC(=O)Cc2ccc(OC3(C(=O)O)CCOCC3)cc2)c1` it was 186 to 188 °C. `COc1cc(C#Cc2cnc(N)nc2N)cc(OC)c1OC`: the melting point is 202 to 204 °C. In the case of `COc1ccc(CN[C@@H]2CCCC[C@H]2NCc2ccc(OC)cc2)cc1` (relative stereo) it was 110 to 112 °C. In the case of `CCOC(=O)c1cccc(OCCCCCCCc2cc(C)no2)c1` it was 16 to 18 °C; in that of `CN(C)c1ccc2nc(N)c(C#N)c(NCc3ccco3)c2c1`, 235 °C.

Compound `CCOC(=O)COc1ccc(OCc2ccccc2)cc1` yielded a melting point of 65 to 68 °C. In the case of `CCCN(CCC)c1c(C#N)cnn1-c1ccc(Cl)c(Cl)c1Cl` it was 99 to 100 °C; in that of `OCc1ncc2n1CCCC2`, 188 to 199 °C; in that of `CNC(=O)C(Cc1ccccc1)NC(=O)CNC(=O)OC(C)(C)C` (stereo not drawn) (Boc-Gly-[ξF]-NHMe), 158 to 160 °C. `CC(C)(C)CNCc1nc(-c2ccc3c(c2)Nc2ccccc2S3)cs1`: the melting point was in the range of 172 to 174 °C. Take `CC(C)(C)c1cccc(S(=O)(=O)n2c(Cc3ccc(C(=O)O)cc3)cc3c(Cl)c(Cl)ccc32)c1`: the melting point worked out at 216 °C. In the case of `O=C(Nc1cccc(Cl)c1)c1nc(-c2ccccc2)c2ccccc2c1O` it was 195 to 197 °C; in that of `CC(C)n1nc(-c2ccc(N)nc2-c2ccccc2)ccc1=O`, 167 to 171 °C.

Turning to `CCn1nc(O)nc1Cl`, the melting point was 108 to 110 °C. On to `N#Cc1ccc(N=Nc2ccc(OCCO)c(C#N)c2)cc1`, for which the melting point was determined as 138 °C. In turn, `CCNC=C(C(=O)OCC)C(=O)c1cc(F)c(F)c(C)c1F` returned a melting point of 110 °C. In the case of `CC(C)n1nc(-c2cc(-n3cccc3)cnc2-c2ccccc2)ccc1=O`, the melting point was 189 to 190 °C. In the case of `CCCCCCCCCCCCCC(=O)Nc1ccc(Cl)c(NC2=NN(c3c(Cl)cc(Cl)cc3Cl)C(=O)C2SCCc2ccccc2)c1` (stereo unspecified) it was 161 to 162 °C; in that of `N#Cc1cc([N+](=O)[O-])ccc1NCCCn1ccnc1`, 177 °C; in that of `Cc1ccc(C(=O)N[C@H]2CC[C@H](O)CC2)c(Nc2ccc3[nH]ncc3c2)n1`, greater than 280 °C.

Compound `COc1cccc(CCc2ccccc2OC[C@H]2CCCN(C(=O)OC(C)(C)C)C2)c1` registered a melting point of 150 to 152 °C. The value for `O=C(O)CCCCC[C@H]1CC[C@@H](O)CC1` was 83 to 85 °C. The value for `CCn1cc(C(=O)O)c(=O)c2cc(F)c(N3CCC(N)C3)c(C)c21` (stereo unspecified) was 187 to 194 °C; that for `CCCC(=O)NCCc1c[nH]c2cc(Cl)c(OC)cc12` was 98 to 98.5 °C; that for `O=C(Oc1ccccc1)OC1c2ccccc2C(=O)N1c1ccc2ccc(Cl)nc2n1` (stereo unspecified) was 235 °C. The value for `N#CC(c1ccccc1Cl)N1CCc2sccc2C1` (stereo unspecified) was 121 to 124 °C; that for `CCCCCCCNC(=O)N(C)c1cccc(-c2ccc(C=C(OC)C(=O)O)cc2OCCCC)c1` was 99 °C; that for `CCOC(=O)C1CCC(Sc2ccc(F)cc2)C(=O)C1` (stereo unspecified) was 96 to 97 °C. The compound `CCOc1cccc(C2NC(C(=O)O)CS2)c1OCCO[N+](=O)[O-]` (stereo unspecified) returned a melting point of 124 to 125 °C.

With `Cn1cc(C2=C(c3cn(CCCSc4ncc[nH]4)c4ccccc34)C(=O)NC2=O)c2ccccc21`, the melting point lay within 130 to 132 °C.

In the case of `c1coc(C2=Nc3ccccc3N3CCc4cccc2c43)c1`, the melting point is 144 to 146 °C.

With `CN(C)C(=O)c1c(Oc2ccccc2)cccc1Oc1ccccc1`, the melting point lay in the range of 109 to 111 °C. In the case of `COC12CC(C)(C)C(O1)C(OC(=O)c1ccc([N+](=O)[O-])cc1)C=C2C` (stereo unspecified) it was 140 to 141 °C; in that of `CCOC(=O)c1cn(CCF)c2nc(S(=O)(=O)CC)c(F)cc2c1=O`, 176 to 178 °C; in that of `O=C(CCl)Nc1c(I)cc(I)c(C(=O)O)c1I`, 253 to 255 °C. The value for `COC(=O)c1cc(C)c(-n2c(C)ccc2C)c(C)c1` was 104 to 106 °C.

In the case of `OCc1ccc(-c2ncn(-c3ccc(OC(F)(F)F)cc3)n2)cc1`, the melting point was in the range of 112 to 114 °C. In the case of `CSc1ccc2c(SCc3ccc(N(CCO)CCO)cc3)ccnc2c1` it was 162 to 165 °C. The compound `O=C1c2ccccc2C(=O)c2sc(-c3ccc([N+](=O)[O-])o3)nc21` registered a melting point greater than 300 °C.

`COc1cc2c(cc1C(F)(F)F)N(C(=O)Nc1ccc3c(ccn3-c3ccncc3)c1)CC2` displayed a melting point of 206 to 211 °C. The value for `O=C1CCC(=O)C1C(=O)CCc1ccc2c(c1)OCO2` was 93 to 94 °C; that for `CC(=O)NC[C@H]1CC(c2ccc(-c3ccncc3)cc2)=NO1` was 244 to 245 °C. The value for `CCOC1Nc2c(ccc(OC)c2OC(C)=O)C(=O)N2CCCC12` (stereo unspecified) was 143 to 146 °C; that for `CCOC(=O)CCc1nnc(CNC(=O)c2ccc(Cl)c(Cl)c2)n1-c1sc(CC)cc1C(=O)c1ccccc1Cl` was 153 to 155 °C; that for `O=C(NC(Cc1ccc([N+](=O)[O-])cc1)C(=O)C(F)(F)F)c1ccccc1` (stereo unspecified) was 175 °C. The value for `COc1ccc(Cl)c(Oc2c(C)nc(-c3ncccn3)nc2Cl)c1` was 110 °C. The compound `Cc1ccc(CN2CC=C(/C=C/c3cccc(Cl)c3)CC2)cc1` had a melting point of 86 to 88 °C. The value for `CC1CCNC(=C2C(=O)CC(C)(C)CC2=O)C1` (stereo unspecified) was 174 °C; that for `Clc1ccnc(-n2ccnc2)n1` was 138 to 139 °C.

For `CCCCC[C@@H](CNC(=O)Nc1c(N(C)C)ncnc1N(C)C)c1cccc2c1OCO2`, the melting point is 151 to 152 °C.

Consider `CC(C)c1cc(CCCOc2ncccc2CC(=O)O)n(Cc2ccc(Cl)cc2Cl)n1`, for which the melting point was in the range of 111 to 112 °C.

In turn, `Cc1ccc(C(=O)C(C#N)C#N)cc1` came in with a melting point of 163 °C.

`N#Cc1cccc(-c2csc(N=C(N)N)n2)n1` came in with a melting point greater than 300 °C.

Compound `COC(=O)c1cc(N2CCC2)c(C(F)(F)F)cc1N` gave a melting point of 80 to 86 °C. In the case of `CCOc1ccnc(Cl)n1` it was 30 to 31 °C; in that of `Cc1nc2cnccc2n1-c1ccc(OCc2cccc(SCc3nc4cc(F)ccc4s3)c2)cc1`, 119 to 121 °C. As for `COC[C@@H]1CC(c2ccc(-c3ccc(N4C[C@H](Cn5ccnn5)OC4=O)cc3F)cn2)=NO1`, the melting point came out at 161 °C. In the case of `O=C1c2ccccc2C(=O)N1CCCN(c1ccccc1)c1ccccn1` it was 103 to 105 °C; in that of `Cc1nc(NCCSCc2nc[nH]c2C)[nH]c(=O)c1Cc1cccnc1`, 128 to 131 °C; in that of `CCOC(=O)c1cc(OCc2ccccc2)ccc1O`, 71.5 to 73 °C. The value for `CN1CCN(CC(=O)O)CC1` was 158 to 160 °C. In the case of `Cc1ccc2c(c1)c1c(n2C(=O)c2ccccc2)CCCC1C(=O)OCc1ccccc1` (stereo unspecified) it was 119 to 121 °C. Compound `CC(OS(C)(=O)=O)c1ccc([N+](=O)[O-])cc1` (stereo unspecified) came in with a melting point of 70 °C.

Regarding `CC(C)CN=C1C(c2ccccc2)=C(c2ccccc2)C(c2ccccc2)=C1c1ccccc1`, the melting point came to 158 °C.

Compound `CCc1cc(C)cc(CC)c1C1C(=O)CC(CC(C)S(=O)CC)CC1=O` (stereo unspecified) registered a melting point of 58 to 61 °C.

`CNC(=O)NC1CCC(O)c2ccccc21` (stereo unspecified): the melting point fell in the range of 172 to 180 °C. As for `O=C(Nc1cccnc1Cl)c1ccccc1F`, the melting point came to 122 °C. The value for `CCC1CCC2(O)C3CC=C4CC(O)CCC4(C)C3CC(O)C12C` (stereo unspecified) was 228 to 235 °C; that for `Cc1ccc(N)c(C(=O)c2ccccc2)c1` was 64 to 66 °C; that for `CCCCCCCCCCCC(CC1OC(=O)C1CCCCCC)OC(=O)C(N)CC(C)C` (stereo unspecified) was 27 to 30 °C. Compound `CC(=O)c1ccc([N+](=O)[O-])c(Nc2cccc(-c3cccnc3)c2)c1` came in with a melting point of 112 to 113 °C. The value for `CC(C)c1cccc(C(C)C)c1NC(=O)CO` was 164 to 166 °C; that for `CC(C)C(N)=C(C#N)C#N` was 163 to 164 °C; that for `Cc1ccc(S(=O)(=O)N(c2ccc([N+](=O)[O-])cc2Cl)C(C)C)cc1` was 154 to 157 °C. The compound `CCOC(=O)C=Cc1ccc(OCc2nc(-c3ccco3)oc2C)c(OC)c1` gave a melting point of 142 to 143 °C. The value for `O=C(CCC(=O)N1CCC(c2ccc(Cl)cc2)CC1)c1ccc2c(c1)CCN(CC1CCCO1)CC2` (stereo unspecified) was 123 to 125 °C.

`CCC1=C(C)CN(C(=O)NC2COc3cc(OC)c(S(=O)(=O)NC(=S)NC)cc3C2)C1=O` (stereo unspecified) gave a melting point of 205 °C. The value for `NNC(=O)Cc1c(F)cccc1F` was 177 to 178 °C; that for `CC1Cn2c(nc3c(cnn3C)c2=O)S1` (stereo unspecified) was 178 to 179 °C.

For orientation: melting point means the temperature of the solid-liquid transition.

The values above are taken from a melting point compilation (Tetko et al.; mined from patent text by program, amines drawn as free bases though some values may be those of a salt).
